# Results published in patent US20260022142A1, “MACROCYCLIC IMMUNOMODULATORS” (Bristol-Myers Squibb Company, priority 2022, published 2026).
# Bridge positions count the residues as written; N and C are the ends. Square brackets hold non-standard residues; d marks the D form. Peptide text beside a SMILES is read from it. * marks the point of attachment. ξ: configuration not given here. Phe(4-CH2CH2COOH) = N[C@@H](Cc1ccc(CCC(=O)O)cc1)C(=O)O; Phe(4-COOH) = N[C@@H](Cc1ccc(C(=O)O)cc1)C(=O)O; Bip = N[C@@H](Cc1ccc(-c2ccccc2)cc1)C(=O)O; Phe(3-Me) = Cc1cccc(C[C@H](N)C(=O)O)c1; Val(3-OH) = CC(C)(O)[C@H](N)C(=O)O; 4Pal = N[C@@H](Cc1ccncc1)C(=O)O; Cha = N[C@@H](CC1CCCCC1)C(=O)O; Cit = NC(=O)NCCC[C@H](N)C(=O)O; Thr(3ξ) = CC(O)[C@H](N)C(=O)O; Dap(Me) = CNC[C@H](N)C(=O)O; dOrn = NCCC[C@@H](N)C(=O)O; Carboxymethyl = O=C(O)C*; Orn = NCCC[C@H](N)C(=O)O; Aun = NCCCCCCCCCCC(=O)O; Dab = NCC[C@H](N)C(=O)O; Dap = NC[C@H](N)C(=O)O; AEEA = NCCOCCOCC(=O)O; ξV = CC(C)C(N)C(=O)O; ξC = NC(CS)C(=O)O
# Target: T1, PD-1/PD-L1 interaction (PE-labeled human PD-L1-Ig binding to Jurkat cell line over-expressing human PD-1) (Homo sapiens, UniProt Q15116)
# T1 construct: expressed in transfected cells; host or cells: Jurkat
# T1 sequence (Q15116 25-288): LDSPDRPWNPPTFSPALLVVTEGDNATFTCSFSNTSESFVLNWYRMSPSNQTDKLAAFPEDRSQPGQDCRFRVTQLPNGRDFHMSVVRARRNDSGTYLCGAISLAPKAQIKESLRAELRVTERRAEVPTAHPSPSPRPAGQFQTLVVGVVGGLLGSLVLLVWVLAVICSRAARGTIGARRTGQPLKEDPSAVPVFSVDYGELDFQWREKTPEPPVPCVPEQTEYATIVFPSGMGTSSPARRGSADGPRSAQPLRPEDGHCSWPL
# Assay: Jurkat-PD-1 Cell Binding High-Content Screening Assay (CBA)
# Assay type: cell-based
# Conditions: Jurkat cell line over-expressing human PD-1; PE-labeled PD-L1-Ig 20 nM final; read-out: Jurkat hPD1-PDL1 IC50
# Summary of the method: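 First, compound is added to PD-1-expressing Jurkat cells in serum-containing DMEM and left 2 h at 37° C. Next, PE-conjugated PD-L1-Ig is introduced at 20 nM final concentration for 1 hour. Finally, cells are fixed in 4% paraformaldehyde with Hoechst 33342, washed and imaged.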
row,IC50,Structure (SMILES)
1,9.8 nM,CC(C)C[C@H]1NC(=O)[C@H](CCCN)NC(=O)[C@H](C(C)C)NC(=O)[C@H](Cc2ccc(-c3ccccc3)cc2)NC(=O)[C@H](C(C)C)NC(=O)[C@H](Cc2c[nH]c3ccccc23)NC(=O)[C@H](CC(=O)O)NC(=O)[C@H](Cc2ccc(C(=O)O)cc2)NC(=O)[C@H](Cc2ccc(OCC(=O)O)cc2)NC(=O)CSC[C@@H](C(=O)NCC(=O)NCCOCCOCC(=O)N[C@@H](CCCN)C(=O)NCCCCCCCCCCC(=O)O)NC(=O)[C@H](CCCN)NC(=O)[C@H](C(C)C)NC(=O)[C@H](CC2CCCCC2)NC(=O)[C@H](CCN)NC1=O [Compound 3228] ({CH2CO}-Y(Carboxymethyl)[Phe(4-COOH)]DWV[Bip]V[Orn][dL][Dab][Cha]V[Orn]CG[AEEA][Orn][Aun]-OH; thioether N-14)
2,56.2 nM,Cc1cccc(C[C@@H]2NC(=O)[C@H](CC(=O)O)NC(=O)[C@H](Cc3ccc(OCC(=O)O)cc3)NC(=O)[C@H](Cc3ccc(OCC(=O)O)cc3)NC(=O)CSC[C@@H](C(=O)N[C@@H](CN)C(=O)NCCCCCCCCCCC(=O)O)NC(=O)[C@H](CO)NC(=O)[C@H](C(C)C)NC(=O)[C@H](CC3CCCCC3)NC(=O)[C@H](CCN)NC(=O)[C@@H](CC(C)C)NC(=O)[C@H](CCCN)NC(=O)[C@H](C(C)C)NC(=O)[C@H](Cc3ccc(-c4ccccc4)cc3)NC(=O)[C@H](CC(C)C)NC2=O)c1 [Compound 1061] ({CH2CO}-Y(Carboxymethyl)Y(Carboxymethyl)D[Phe(3-Me)]L[Bip]V[Orn][dL][Dab][Cha]VSC[Dap][Aun]-OH; thioether N-14)
3,10.9 nM,Cc1cccc(C[C@@H]2NC(=O)[C@H](CC(=O)O)NC(=O)[C@H](Cc3ccc(OCC(=O)O)cc3)NC(=O)[C@H](C(C)O)NC(=O)CSC[C@@H](C(=O)N[C@H](CC(N)=O)C(=O)NCCOCCOCC(=O)NCCCCCCCCCCC(=O)O)NC(=O)[C@H](CO)NC(=O)[C@H](C(C)C)NC(=O)[C@H](CC3CCCCC3)NC(=O)[C@H](CCN)NC(=O)[C@@H](CC(C)C)NC(=O)[C@H](CCCN)NC(=O)[C@H](C(C)C)NC(=O)[C@H](Cc3ccc(-c4ccccc4)cc3)NC(=O)[C@H](C(C)C)NC2=O)c1 (stereo partly drawn) [Compound 3254] ({CH2CO}-[Thr(3ξ)]Y(Carboxymethyl)D[Phe(3-Me)]V[Bip]V[Orn][dL][Dab][Cha]VSC[dN][AEEA][Aun]-OH; thioether N-14)
4,11.7 nM,CC(C)C[C@H]1NC(=O)[C@H](CCCN)NC(=O)[C@H](Cc2ccc(O)cc2)NC(=O)[C@H](Cc2ccc(-c3ccccc3)cc2)NC(=O)[C@H](C(C)C)NC(=O)[C@H](Cc2c[nH]c3ccccc23)NC(=O)[C@H](CC(=O)O)NC(=O)[C@H](Cc2ccc(C(=O)O)cc2)NC(=O)[C@H](Cc2ccc(OCC(=O)O)cc2)NC(=O)CSC[C@@H](C(=O)NCCOCCOCC(=O)NCCCCCCCCCCC(=O)O)NC(=O)[C@H](CCCNC(N)=O)NC(=O)C(C(C)C)NC(=O)[C@H](CC2CCCCC2)NC(=O)[C@H](CCN)NC1=O (stereo partly drawn) [Compound 1243] ({CH2CO}-Y(Carboxymethyl)[Phe(4-COOH)]DWV[Bip]Y[Orn][dL][Dab][Cha][ξV][Cit]C[AEEA][Aun]-OH; thioether N-14)
5,6 nM,Cc1cccc(C[C@@H]2NC(=O)[C@H](CC(=O)O)NC(=O)[C@H](Cc3ccc(OCC(=O)O)cc3)NC(=O)[C@H](CCN)NC(=O)CSC[C@@H](C(=O)N[C@@H](CCN)C(=O)NCCOCCOCC(=O)NCCOCCOCC(=O)NCCCCCCCCCCC(=O)O)NC(=O)[C@H](CCC(=O)O)NC(=O)[C@H](C(C)(C)O)NC(=O)[C@H](CC3CCCCC3)NC(=O)[C@H](CCN)NC(=O)[C@@H](CC(C)C)NC(=O)[C@H](CCCN)NC(=O)[C@H](Cc3ccc(OCC(=O)O)cc3)NC(=O)[C@H](Cc3ccc(-c4ccccc4)cc3)NC(=O)[C@H](Cc3ccc(OCC(=O)O)cc3)NC2=O)c1 [Compound 3753] ({CH2CO}-[Dab]Y(Carboxymethyl)D[Phe(3-Me)]Y(Carboxymethyl)[Bip]Y(Carboxymethyl)[Orn][dL][Dab][Cha][Val(3-OH)]EC[Dab][AEEA][AEEA][Aun]-OH; thioether N-14)
6,6 nM,Cc1cccc(C[C@@H]2NC(=O)[C@H](CC(=O)O)NC(=O)[C@H](Cc3ccc(OCC(=O)O)cc3)NC(=O)[C@H](CCCNC(=N)N)NC(=O)CSC[C@@H](C(=O)N[C@@H](CCN)C(=O)NCCCCCCCCCCC(=O)O)NC(=O)[C@H](CCC(N)=O)NC(=O)[C@H](C(C)C)NC(=O)[C@H](CC3CCCCC3)NC(=O)[C@H](CCN)NC(=O)[C@@H](CC(C)C)NC(=O)[C@H](CCCN)NC(=O)[C@H](Cc3ccc(OCC(=O)O)cc3)NC(=O)[C@H](Cc3ccc(-c4ccccc4)cc3)NC(=O)[C@H](Cc3ccc(CCC(=O)O)cc3)NC2=O)c1 [Compound 2129] ({CH2CO}-RY(Carboxymethyl)D[Phe(3-Me)][Phe(4-CH2CH2COOH)][Bip]Y(Carboxymethyl)[Orn][dL][Dab][Cha]VQC[Dab][Aun]-OH; thioether N-14)
7,30.2 nM,Cc1cccc(C[C@@H]2NC(=O)[C@H](CC(=O)O)NC(=O)[C@H](Cc3ccc(OCC(=O)O)cc3)NC(=O)[C@H](CN)NC(=O)CSC[C@@H](C(=O)N[C@@H](C)C(=O)N[C@@H](CCCN)C(=O)NCCCCCCCCCCC(=O)O)NC(=O)[C@H]([C@@H](C)O)NC(=O)[C@H](C(C)C)NC(=O)[C@H](CC3CCCCC3)NC(=O)[C@H](Cc3cnc[nH]3)NC(=O)[C@@H](CC(C)C)NC(=O)[C@H](CCCN)NC(=O)[C@H](C(C)C)NC(=O)[C@H](Cc3ccc(-c4ccccc4)cc3)NC(=O)[C@H](C(C)C)NC2=O)c1 [Compound 1113] ({CH2CO}-[Dap]Y(Carboxymethyl)D[Phe(3-Me)]V[Bip]V[Orn][dL]H[Cha]VTCA[Orn][Aun]-OH; thioether N-14)
8,25.6 nM,CCC(C)[C@@H]1NC(=O)[C@H](Cc2ccc(-c3ccccc3)cc2)NC(=O)[C@H](C(C)C)NC(=O)[C@H](Cc2cccc(C)c2)NC(=O)[C@H](CC(=O)O)NC(=O)[C@H](Cc2ccc(OCC(=O)O)cc2)NC(=O)[C@H](C(C)O)NC(=O)CSC[C@@H](C(=O)N[C@@H](CCCN)C(=O)NCCCCCCCCCCCC(=O)O)NC(=O)[C@H](C(C)O)NC(=O)[C@H](C(C)C)NC(=O)[C@H](CC2CCCCC2)NC(=O)[C@H](CCN)NC(=O)[C@@H](CC(C)C)NC(=O)[C@H](CCCN)NC1=O (stereo partly shown) [Compound 3098]
9,57.5 nM,CC(C)C[C@H]1NC(=O)[C@H](CCCN)NC(=O)[C@H](C(C)C)NC(=O)[C@H](Cc2ccc(-c3ccccc3)cc2)NC(=O)[C@H](C(C)C)NC(=O)[C@H](Cc2c[nH]c3ccccc23)NC(=O)[C@H](CC(=O)O)NC(=O)[C@H](Cc2ccc(OCC(=O)O)cc2)NC(=O)[C@H](CN)NC(=O)CSCC(C(=O)N[C@H](CCCN)C(=O)NCCCCCCCCCCC(=O)O)NC(=O)[C@H]([C@@H](C)O)NC(=O)[C@H](C(C)C)NC(=O)[C@H](CC2CCCCC2)NC(=O)[C@H](Cc2cnc[nH]2)NC1=O (stereo partly drawn) [Compound 1119] ({CH2CO}-[Dap]Y(Carboxymethyl)DWV[Bip]V[Orn][dL]H[Cha]VT[ξC][dOrn][Aun]-OH; thioether N-14)
10,20.6 nM,Cc1cccc(C[C@@H]2NC(=O)[C@H](CC(=O)O)NC(=O)[C@H](Cc3ccc(C(=O)O)cc3)NC(=O)[C@H](Cc3ccncc3)NC(=O)CSC[C@@H](C(=O)NCCOCCOCC(=O)NCCOCCOCC(=O)NCCCCCCCCCCC(=O)O)NC(=O)[C@H](Cc3cnc[nH]3)NC(=O)[C@H](C(C)(C)O)NC(=O)[C@H](CC3CCCCC3)NC(=O)[C@H](CCN)NC(=O)[C@@H](CC(C)C)NC(=O)[C@H](CCCN)NC(=O)[C@H](Cc3ccc(OCC(=O)O)cc3)NC(=O)[C@H](Cc3ccc(-c4ccccc4)cc3)NC(=O)[C@H](Cc3ccc(OCC(=O)O)cc3)NC2=O)c1 [Compound 3735] ({CH2CO}-[4Pal][Phe(4-COOH)]D[Phe(3-Me)]Y(Carboxymethyl)[Bip]Y(Carboxymethyl)[Orn][dL][Dab][Cha][Val(3-OH)]HC[AEEA][AEEA][Aun]-OH; thioether N-14)
11,21.9 nM,Cc1cccc(C[C@@H]2NC(=O)[C@H](CC(=O)O)NC(=O)[C@H](Cc3ccc(OCC(=O)O)cc3)NC(=O)[C@H](CCCN)NC(=O)CSC[C@@H](C(=O)N[C@@H](CCN)C(=O)NCCCCCCCCCCC(=O)O)NC(=O)[C@H]([C@@H](C)O)NC(=O)[C@H](C(C)C)NC(=O)[C@H](CC3CCCCC3)NC(=O)[C@H](CCN)NC(=O)[C@@H](CC(C)C)NC(=O)[C@H](CCCN)NC(=O)[C@H](CCCNC(N)=O)NC(=O)[C@H](Cc3ccc(-c4ccccc4)cc3)NC(=O)[C@H](C(C)C)NC2=O)c1 [Compound 2822] ({CH2CO}-[Orn]Y(Carboxymethyl)D[Phe(3-Me)]V[Bip][Cit][Orn][dL][Dab][Cha]VTC[Dab][Aun]-OH; thioether N-14)
12,29.9 nM,Cc1cccc(C[C@@H]2NC(=O)[C@H](CC(=O)O)NC(=O)[C@H](Cc3ccc(OCC(=O)O)cc3)NC(=O)[C@H](CCCNC(=N)N)NC(=O)CSC[C@@H](C(=O)N[C@@H](CCN)C(=O)NCCCCCCCCCCC(=O)O)NC(=O)[C@H]([C@@H](C)O)NC(=O)[C@H](C(C)C)NC(=O)[C@H](CC3CCCCC3)NC(=O)[C@H](CCN)NC(=O)[C@@H](CC(C)C)NC(=O)[C@H](CCCN)NC(=O)[C@H](Cc3ccc(O)cc3)NC(=O)[C@H](Cc3ccc(-c4ccccc4)cc3)NC(=O)[C@H](C(C)C)NC2=O)c1 [Compound 2725] ({CH2CO}-RY(Carboxymethyl)D[Phe(3-Me)]V[Bip]Y[Orn][dL][Dab][Cha]VTC[Dab][Aun]-OH; thioether N-14)
13,16.2 nM,CNC[C@@H]1NC(=O)CSC[C@@H](C(=O)N[C@@H](CCN)C(=O)NCCCCCCCCCCC(=O)O)NC(=O)[C@H](C(C)O)NC(=O)[C@H](C(C)C)NC(=O)[C@H](CC2CCCCC2)NC(=O)[C@H](CCN)NC(=O)[C@@H](CC(C)C)NC(=O)[C@H](CCCN)NC(=O)[C@H](CCCNC(N)=O)NC(=O)[C@H](Cc2ccc(-c3ccccc3)cc2)NC(=O)[C@H](C(C)C)NC(=O)[C@H](Cc2cccc(C)c2)NC(=O)[C@H](CC(=O)O)NC(=O)[C@H](Cc2ccc(OCC(=O)O)cc2)NC1=O (stereo partly drawn) [Compound 3454] ({CH2CO}-[Dap(Me)]Y(Carboxymethyl)D[Phe(3-Me)]V[Bip][Cit][Orn][dL][Dab][Cha]V[Thr(3ξ)]C[Dab][Aun]-OH; thioether N-14)
